Literature values as cited in patent US20050038005A1, “Method of intermittent administration of a pharmaceutical for the treatment of conditions associated with a female's menstrual cycle” (priority 2003, published 2005).

How the values were obtained:
[1] = administration of fluoxetine
[2] = intermittent administration for approximately fourteen days prior to the start of menses
[3] = calcium supplementation; especially pain and water retention
[4] = magnesium supplementation, oral

CNCCC(Oc1ccc(C(F)(F)F)cc1)c1ccccc1 (stereo not shown) [fluoxetine]
amelioration of symptoms of PMS/PMDD [1]: ameliorate the symptoms of PMS/PMDD
efficacy in treating the symptoms of PMS [2]: efficacious in treating the symptoms of PMS

[Ca+2] [Calcium]
alleviation of symptoms associated with PMS [3]: effective treatment for alleviating some of the symptoms associated with PMS

[Mg+2] [Magnesium]
relief of symptoms of PMS [4]: relieve some symptoms of PMS, particularly pain and mood fluctuations
